Results on five compounds are retold here after patent US9890166B2, “Imidazopyrrolidine derivatives and their use in the treatment of disease” (NOVARTIS AG, priority 2013, dated 2018).

Bounds are passed on as bounds.

The test system of assay [1] is K-562 cells. Put plainly: Cell growth inhibition assay (CellTiter-Glo), K-562.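 For all read-outs here: cellular ATP measured by luminescence after 4 days of exposure, 3-fold dilution series from 10 µM, DMSO vehicle-treated cells define 100%, cell-free medium wells −100%.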 The following applies: for GI50: Homo sapiens, K562, read-out: K-562 GI50; for K-562 TGI: K-562 cells, total growth inhibition, CellTiter-Glo. On the technique in general: In ATP-based viability assays light output follows the ATP content of the culture.
Assay [2] deals with MV-4-11 cells. Description: Cell growth inhibition assay (CellTiter-Glo), MV-4-11.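 For all read-outs here: cellular ATP luminescence after 4 days, 3-fold dilution series from 10 µM top dose, vehicle (0.1% DMSO) set to 100%, cell-free medium set to −100%, day 0 corrected.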 To be noted: for GI50: Homo sapiens, MV4-11, read-out: MV-4-11 GI50; for MV-4-11 TGI: MV-4-11 cells, total growth inhibition, CellTiter-Glo.
Assay [3] relates to THP-1 cells. Put plainly: Cell growth inhibition assay (CellTiter-Glo), THP-1.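 For all read-outs here: viability read as cellular ATP luminescence after 4 days, 3-fold dilution series from 10 µM, DMSO vehicle-treated cells taken as 100%, cell-free medium wells as −100%.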 To be noted: for GI50: Homo sapiens, THP-1, read-out: THP-1 GI50; for THP-1 TGI: THP-1 cells, total growth inhibition, CellTiter-Glo.
In assay [4] the target is BRD2 (His-Brd2(60-472)) (Homo sapiens (Human), UniProt P25440). Description: TR-FRET in-vitro binding assay for BRD2. To be noted: single determination or n ≧ 2 independent determinations, read-out: Biochemical IC50 BRD2. The gist of the method:
(§1)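 His-tagged BRD2, BRD3 and BRD4 fragments tested by TR-FRET at 8 compound concentrations, with DMSO stocks at 10 mM. Read on EnVision after 35 min incubation at 30° C.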
(In general: TR-FRET usually uses a lanthanide donor and a delayed reading to cut background.)

Assay [5] has as its target BRD3 (His-Brd3(20-477)) (Homo sapiens (Human), UniProt Q15059). Put plainly: TR-FRET in-vitro binding assay for BRD3. To be noted: single determination or n ≧ 2 independent determinations, read-out: Biochemical IC50 BRD3. A digest of the protocol: as §1
The target of assay [6] is BRD4 (His-Brd4(44-477)) (Homo sapiens (Human), UniProt O60885). Put plainly: TR-FRET in-vitro binding assay for BRD4. The following applies: single determination or n ≧ 2 independent determinations, read-out: Biochemical IC50 BRD4. A digest of the protocol:
as §1

For assay [7], the target named is CREBBP bromodomain (His-CREBBP(1081-1197)) (Homo sapiens (Human), UniProt Q92793). Put plainly: AlphaScreen in-vitro binding assay for CREBBP. To be noted: single determination or n ≧ 2 independent determinations, read-out: Biochemical IC50 CREBBP. A digest of the protocol:
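Detection used nickel-chelate acceptor plus streptavidin donor AlphaScreen beads, 1 h room temperature. Percent inhibition fitted by non-linear regression to IC50.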
A general note: Bead proximity is the source of the signal in Alpha formats.

Sequence of CREBBP bromodomain (His-CREBBP(1081-1197)) (Q92793 1081-1197): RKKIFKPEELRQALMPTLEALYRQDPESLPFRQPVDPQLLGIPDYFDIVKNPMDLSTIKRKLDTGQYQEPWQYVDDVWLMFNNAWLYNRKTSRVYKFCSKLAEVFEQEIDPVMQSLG
Sequence of BRD3 (His-Brd3(20-477)) (Q15059 20-477): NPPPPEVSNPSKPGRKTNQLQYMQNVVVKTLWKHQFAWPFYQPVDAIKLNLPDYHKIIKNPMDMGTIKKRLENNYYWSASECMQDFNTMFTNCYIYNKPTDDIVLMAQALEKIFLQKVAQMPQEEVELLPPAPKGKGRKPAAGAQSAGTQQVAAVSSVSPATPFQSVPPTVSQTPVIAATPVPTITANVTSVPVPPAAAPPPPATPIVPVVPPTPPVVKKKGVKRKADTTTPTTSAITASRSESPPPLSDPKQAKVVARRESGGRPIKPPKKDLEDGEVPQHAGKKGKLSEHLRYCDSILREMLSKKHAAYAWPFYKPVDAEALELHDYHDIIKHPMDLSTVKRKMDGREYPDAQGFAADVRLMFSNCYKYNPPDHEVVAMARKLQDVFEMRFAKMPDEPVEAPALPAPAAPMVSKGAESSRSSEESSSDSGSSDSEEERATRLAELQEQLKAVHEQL
Sequence of BRD2 (His-Brd2(60-472)) (P25440 60-472): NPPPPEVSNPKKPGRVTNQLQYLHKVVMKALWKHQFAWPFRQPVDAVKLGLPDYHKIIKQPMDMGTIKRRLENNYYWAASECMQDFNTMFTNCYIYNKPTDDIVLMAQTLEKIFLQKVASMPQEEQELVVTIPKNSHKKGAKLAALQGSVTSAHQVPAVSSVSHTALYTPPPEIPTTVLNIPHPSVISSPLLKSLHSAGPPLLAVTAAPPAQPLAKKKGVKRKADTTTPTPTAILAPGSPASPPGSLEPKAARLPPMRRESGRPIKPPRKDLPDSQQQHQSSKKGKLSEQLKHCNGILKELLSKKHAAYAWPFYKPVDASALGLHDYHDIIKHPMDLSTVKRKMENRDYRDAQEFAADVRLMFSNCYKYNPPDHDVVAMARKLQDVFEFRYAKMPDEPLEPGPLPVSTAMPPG

What is called GI50 is the concentration that inhibits growth by half. By IC50 is commonly meant the concentration needed to halve the response being measured. As for `Cc1cc(N2C(=O)c3nc(C4=CCN(C)CC4)n(C(C)C)c3C2c2ccc(Cl)cc2)cc2c1nnn2C` (centres unmarked) [Example 78, 6-(4-chlorophenyl)-5-(1,4-dimethyl-1H-benzo[d][1,2,3]triazol-6-yl)-1-isopropyl-2-(1-methyl-1,2,3,6-tetrahydropyridin-4-yl)-5,6-dihydropyrrolo[3,4-d]imidazol-4(1H)-one], the GI50 in assay [1] was 49.6 nM; in assay [2] it was 4.54 nM; in assay [3], 14.4 nM. In addition, the “K-562 TGI” value in assay [1] is more than 10000 nM. Further, the “MV-4-11 TGI” value in assay [2] came out at 9.58 nM. For the same compound, the “THP-1 TGI” value in assay [3] worked out at 38.8 nM. The IC50 is 48 nM in assay [4], 31 nM in assay [5], 28 nM in assay [6] and 4300 nM in assay [7].

Turning to `Cc1cc(N2C(=O)c3nc(C4=CCOCC4)n(C(C)C)c3C2c2ccc(Cl)cc2)cc2c1nnn2C` (centres unmarked) [Example 79, 6-(4-chlorophenyl)-2-(3,6-dihydro-2H-pyran-4-yl)-5-(1,4-dimethyl-1H-benzo[d][1,2,3]triazol-6-yl)-1-isopropyl-5,6-dihydropyrrolo[3,4-d]imidazol-4(1H)-one], the concentration for 50% growth inhibition (GI50) was found to be 29.6 nM in assay [1], 5.58 nM in assay [2] and 7.92 nM in assay [3]. In addition, in assay [1], the “K-562 TGI” value was more than 10000 nM. The “MV-4-11 TGI” value in assay [2] turned out to be 11.1 nM. Also, the “THP-1 TGI” value in assay [3] was found to be 17.9 nM. Further, the IC50 in assay [4] turned out to be 46 nM; in assay [5], 21.5 nM; in assay [6], 26 nM; in assay [7], 3400 nM.

As to `Cc1cc(N2C(=O)c3nc(C4CCOCC4)n(C(C)C)c3C2c2ccc(Cl)cc2)cc2c1nnn2C` (centres unmarked) [Example 80, 6-(4-chlorophenyl)-5-(1,4-dimethyl-1H-benzo[d][1,2,3]triazol-6-yl)-1-isopropyl-2-(tetrahydro-2H-pyran-4-yl)-5,6-dihydropyrrolo[3,4-d]imidazol-4(1H)-one], the GI50 stood at 28.8 nM in assay [1], 4.14 nM in assay [2] and 5.53 nM in assay [3]. Further, the “K-562 TGI” value in assay [1] was more than 10000 nM. For the same compound, the “MV-4-11 TGI” value in assay [2] amounted to 9.45 nM. Moreover, the “THP-1 TGI” value in assay [3] came out at 15.4 nM. Besides, the IC50 came out at 17 nM in assay [4], 12 nM in assay [5], 13 nM in assay [6] and 1450 nM in assay [7].

In the case of `Cc1cc(N2C(=O)c3nc(C4=CCOCC4)n(C(C)C)c3[C@H]2c2ccc(Cl)cc2)cc2c1nnn2C` [Example 81, (R)-6-(4-chlorophenyl)-2-(3,6-dihydro-2H-pyran-4-yl)-5-(1,4-dimethyl-1H-benzo[d][1,2,3]triazol-6-yl)-1-isopropyl-5,6-dihydropyrrolo[3,4-d]imidazol-4(1H)-one], the concentration for 50% growth inhibition (GI50) in assay [1] amounted to 19.5 nM; in assay [2], 3.42 nM; in assay [3], 3.82 nM. Also, in assay [1], the “K-562 TGI” value was more than 10000 nM. Also, the “MV-4-11 TGI” value in assay [2] came out at 5.405 nM. The “THP-1 TGI” value in assay [3] worked out at 10.7 nM. Further, the IC50 in assay [4] was less than 11 nM; in assay [5], less than 11 nM; in assay [6] it was less than 11 nM; in assay [7] it was 1500 nM.

Take `Cc1cc(N2C(=O)c3nc(C4CCOCC4)n(C(C)C)c3[C@H]2c2ccc(Cl)cc2)cc2c1nnn2C` [Example 82, (R)-6-(4-chlorophenyl)-5-(1,4-dimethyl-1H-benzo[d][1,2,3]triazol-6-yl)-1-isopropyl-2-(tetrahydro-2H-pyran-4-yl)-5,6-dihydropyrrolo[3,4-d]imidazol-4(1H)-one]: the values for the GI50 in assay [1], in assay [2] and in assay [3] were 8.96 nM, 1.57 nM and 2.54 nM, respectively. Besides, the “K-562 TGI” value in assay [1] is more than 10000 nM. For the same compound, the “MV-4-11 TGI” value in assay [2] was found to be 6.03 nM. Moreover, the “THP-1 TGI” value in assay [3] was determined as 9.82 nM. For the same compound, the IC50 in assay [4] is 13 nM; in assay [5] it was less than 11 nM; in assay [6], less than 11 nM; in assay [7], 1080 nM.
